The source of these data is patent publication EP4741386A1 (Jiangsu Yahong Meditech Co., Ltd., priority 2023, dated 2025).

The target in experiment [1] is T1, Recombinant human His6-USP1/His6-UAF1 complex protein (Homo sapiens, UniProt O94782).
T1 construct: His6; purchased R&D E-568-050
The experiment is described as follows: In vitro inhibitory activity against USP1 (Ubiquitin Rhodamine 110 fluorescence detection, 384-well plate). The experiment is classed as biochemical. The note with it: Ub-Rho substrate, 1 hour pre-incubation, read after 30 minutes. As for the experimental part: Test Example 1: In vitro inhibitory activity against USP1 […]
Experimental object: to screen compounds with inhibitory activity against USP1 […] by a fluorescence detection method, using a 384-well plate.
Experimental materials: Recombinant human His6-USP1/His6-UAF1 complex protein (R&D, Cat. No.: E-568-050), Ubiquitin Rhodamine 110 protein (Ub-Rho) (R&D, Cat. No.: U-555-050), 384-well plate (Perkin Elmer, Cat. No.: 6007279); all compounds were dissolved in 100% DMSO to obtain 50 mM stock solutions.
• 1) Preparation of 1 × assay buffer: 1 × assay buffer (modified Tris buffer) was prepared; • 2) Dilution of compounds: the compounds were transferred to an assay plate via Echo.

The test system of the next experiment is MDA-MB-436. The experiment is described as follows: CTG experiment for cell viability (CellTiter-Glo, 96-well plate, 7 days). The experiment is classed as cell-based. The note with it: MDA-MB-436 cells, 7 days culture with compound. As for the experimental part:
Test Example 2: CTG experiment for cell viability
• 1. Object: to screen USP1 inhibitors by a CTG assay, using a 96-well plate. • 2. Materials: • The cells used were MDA-MB-436 (manufacturer: Nanjing Cobioer Biotechnology Co., Ltd.) and cultured in DMEM medium, • CTG (CellTiter-Glo® Luminescent Cell Viability Assay kit) (Promega, Cat. No.: G7572), • 96-well plate (Corning, Cat. No.: 3610). • 3. Compounds: all compounds were dissolved in 100% DMSO to obtain 50 mM stock solutions. • 4. Experimental method: • ① Plating: The cells to be tested were spread into a 96-well plate at a certain density, with 200 µL per well, and 200 µL of cell medium was added to the blank wells. […] The cell plate with the compounds was placed in an incubator at 37°C, and further cultured for 7 days prior to detection. • ④ Assay: The substrate and the buffer of CTG kit were mixed evenly. The cell plate with the compounds in Step ③ was taken out from the incubator, and left at room temperature to equilibrate for 30 minutes. The medium containing the compounds was removed from the cell plate, 100 µL of PBS and 50 µL of CTG reagent were added to each well, shaken and mixed for 3 minutes, and then incubated for 10 minutes at room temperature. The plate was read by a BIotek microplate-reader, with a parameter set to 567 CPM. • 5. Curve fitting
It was the same as that for the enzyme.
For orientation: Cellular ATP, detected with luciferase, serves as a proxy for viable cell number.

Setting [2] is: Homo sapiens, MDA-MB-436, 168 h.

T1 sequence (O94782 whole entry): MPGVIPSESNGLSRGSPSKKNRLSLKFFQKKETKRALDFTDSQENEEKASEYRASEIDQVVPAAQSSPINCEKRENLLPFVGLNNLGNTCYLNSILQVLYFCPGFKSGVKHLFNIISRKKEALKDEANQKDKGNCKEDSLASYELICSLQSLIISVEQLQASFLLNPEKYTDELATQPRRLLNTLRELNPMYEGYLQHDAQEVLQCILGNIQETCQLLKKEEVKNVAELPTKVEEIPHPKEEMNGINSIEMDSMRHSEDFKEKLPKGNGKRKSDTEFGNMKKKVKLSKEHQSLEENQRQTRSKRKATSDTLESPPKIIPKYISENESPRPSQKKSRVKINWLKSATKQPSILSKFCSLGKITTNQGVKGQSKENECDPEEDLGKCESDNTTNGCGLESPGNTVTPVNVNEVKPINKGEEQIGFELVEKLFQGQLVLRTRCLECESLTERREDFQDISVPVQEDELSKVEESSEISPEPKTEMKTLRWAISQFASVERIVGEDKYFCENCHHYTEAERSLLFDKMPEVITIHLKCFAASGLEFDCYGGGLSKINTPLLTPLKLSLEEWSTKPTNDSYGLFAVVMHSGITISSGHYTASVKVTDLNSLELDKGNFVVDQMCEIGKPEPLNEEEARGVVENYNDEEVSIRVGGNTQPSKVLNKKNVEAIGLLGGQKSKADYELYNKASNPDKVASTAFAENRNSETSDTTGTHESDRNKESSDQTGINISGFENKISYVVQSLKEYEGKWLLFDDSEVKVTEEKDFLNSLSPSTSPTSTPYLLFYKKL
T1 sequence (Q8TAF3 whole entry partner): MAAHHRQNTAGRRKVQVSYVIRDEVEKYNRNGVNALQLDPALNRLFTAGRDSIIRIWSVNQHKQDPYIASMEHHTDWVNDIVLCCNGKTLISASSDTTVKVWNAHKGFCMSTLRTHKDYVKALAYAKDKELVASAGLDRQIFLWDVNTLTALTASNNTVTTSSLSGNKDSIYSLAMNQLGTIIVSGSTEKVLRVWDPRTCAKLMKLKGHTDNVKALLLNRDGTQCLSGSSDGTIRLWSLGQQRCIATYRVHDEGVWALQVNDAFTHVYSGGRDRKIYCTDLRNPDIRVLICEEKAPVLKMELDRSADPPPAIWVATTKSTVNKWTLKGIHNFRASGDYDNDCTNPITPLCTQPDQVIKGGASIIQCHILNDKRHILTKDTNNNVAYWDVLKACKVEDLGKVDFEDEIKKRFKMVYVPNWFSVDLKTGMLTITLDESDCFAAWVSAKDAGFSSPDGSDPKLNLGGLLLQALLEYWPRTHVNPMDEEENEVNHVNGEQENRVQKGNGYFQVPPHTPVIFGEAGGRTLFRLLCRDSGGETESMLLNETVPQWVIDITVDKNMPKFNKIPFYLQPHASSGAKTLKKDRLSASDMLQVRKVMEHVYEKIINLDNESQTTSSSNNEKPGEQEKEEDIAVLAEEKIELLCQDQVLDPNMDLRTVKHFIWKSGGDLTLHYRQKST

For the compound `COc1cnc(-c2ccccc2C(C)C)nc1N(C)CC1CCN(c2ccccn2)CC1` [Example 2, 2-(2-Isopropylphenyl)-5-methoxy-N-methyl-N-((1-(pyridin-2-yl)piperidin-4-yl)methyl)pyrimidin-4-amine], the IC50 (as a rule, the point on the concentration scale where inhibition reaches its midpoint) in experiment [1] came to 14 nM; with MDA-MB-436 (setting [2]), 0.1 nM.
On the same counts, the results for `COc1cnc(-c2ccccc2C(C)C)nc1N(C)Cc1ccc(-c2nc(C(F)(F)F)cn2C)cc1` [Example 3, 2-(2-Isopropylphenyl)-5-methoxy-N-methyl-N-(4-(1-methyl-4-(trifluoromethyl)-1H-imidazol-2-yl)benzyl)pyrimidin-4-amine] are 2.8 nM and 6.4 nM.
Regarding `COc1cnc(-c2ccccc2C(C)C)nc1NCc1ccc(-c2nc(C(F)(F)F)cn2C)cc1` [Example 4, 2-(2-Isopropylphenyl)-5-methoxy-N-(4-(1-methyl-4-(trifluoromethyl)-1H-imidazol-2-yl)benzyl)pyrimidin-4-amine], the IC50 in experiment [1] amounted to 1.2 nM; in the experiment with MDA-MB-436 (setting [2]) it was 0.3 nM.
In the case of `COc1cnc(-c2ccccc2C(C)C)nc1NCC1CCN(c2ccccn2)CC1` [Example 5, 2-(2-Isopropylphenyl)-5-methoxy-N-((1-(pyridin-2-yl)piperidin-4-yl)methyl)pyrimidin-4-amine], the IC50 in experiment [1] was found to be 7.6 nM; in the experiment with MDA-MB-436 (setting [2]), 113 nM.
`COc1ncnc(C2CC2)c1-c1ncc2c(n1)N(Cc1ccc(-c3nc(C(F)(F)F)cn3C)cc1)C(=O)CO2` [Example 18, 2-(4-Cyclopropyl-6-methoxypyrimidin-5-yl)-8-(4-(1-methyl-4-(trifluoromethyl)-1H-imidazol-2-yl)benzyl)-6H-pyrimido[5,4-b][1,4]oxazin-7(8H)-one]: in the experiment on MDA-MB-436 (setting [2]), the IC50 amounted to 313 nM.
On to `COc1ncnc(C2CC2)c1-c1ncc2c(n1)N(Cc1ccc(-c3nc(C(F)(F)F)cn3C)cc1)CCO2` [Example 21, 2-(4-Cyclopropyl-6-methoxypyrimidin-5-yl)-8-(4-(1-methyl-4-(trifluoromethyl)-1H-imidazol-2-yl)benzyl)-7,8-dihydro-6H-pyrimido[5,4-b][1,4]oxazine], for which the IC50 in the experiment on MDA-MB-436 (setting [2]) stood at 1.8 nM.
The same measure, in the same setting: then `COc1ncnc(C2CC2)c1-c1nc(NCc2ccc(-c3ccccn3)cc2)c2occc2n1` [Example 34, 2-(4-Cyclopropyl-6-methoxypyrimidin-5-yl)-N-(4-(pyridin-2-yl)benzyl)furo[3,2-d]pyrimidin-4-amine], with 119 nM; and `Cn1cc(C(F)(F)F)nc1-c1ccc(CNc2nc(-c3cccnc3C3CC3)ncc2OC(F)F)cc1` [Example 156, 2-(2-Cyclopropylpyridin-3-yl)-5-(difluoromethoxy)-N-(4-(1-methyl-4-(trifluoromethyl)-1H-imidazol-2-yl)benzyl)pyrimidin-4-amine], with 59.5 nM.
For `COc1cnc(-c2c(OC)ncnc2C2CC2)nc1NCC1CCC(c2nc(C(F)(F)F)cn2C(C)C)CC1` [Example S25, 4'-Cyclopropyl-N-((1R,4R)-4-(1-isopropyl-4-(trifluoromethyl)-1H-imidazol-2-yl)cyclohexyl)methyl)-5,6'-dimethoxy-[2,5'-bipyrimidin]-4-amine], the IC50 with MDA-MB-436 came out at 24.4 nM.
Still for that read-out and setting: then `COc1cnc(-c2c(OC)ncnc2C2CC2)nc1N(C)C[C@H]1CC[C@H](c2nc(C(F)(F)F)cn2C2CC2)CC1` [Example S28, 4'-Cyclopropyl-N-(((1R,4R)-4-(1-cyclopropyl-4-(trifluoromethyl)-1H-imidazol-2-yl)cyclohexyl)methyl)-5,6'-dimethoxy-N-methyl-[2,5'-bipyrimidin]-4-amine], with 0.3 nM.
On to `COc1cnc(-c2c(OC)ncnc2C2(F)CC2)nc1NCC1CCC(c2nc(C(F)(F)F)cn2C2CC2)CC1` [Example S38, N-(((1R,4R)-4-(1-cyclopropyl-4-(trifluoromethyl)-1H-imidazol-2-yl)cyclohexyl)methyl)-4'-(1-fluorocyclopropyl)-5,6'-dimethoxy-[2,5'-bipyrimidin]-4-amine], for which, in experiment [1], the IC50 worked out at 220 nM.
